Patent US11466020B2, “Compounds and compositions for inhibition and elimination of Zika infection and uses for same” (Cornell University, priority 2017, dated 2022)

Columns and labels:
[1] = test system: ZIKV MR766; assay: Inhibition of ZIKV infection of hNPCs (high content screen / inhibitory curve, ZIKV E staining); format: cell-based, Zika virus; conditions: 20 μM Merbromin, 72 h after ZIKV infection
Protocol: A high content chemical screen identifies compounds that inhibit ZIKV infection of hNPCs. To identify drugs that inhibit ZIKV infection, we screened the Prestwick library that includes 1120 FDA-approved drug and drug candidates, selected for known bioavailability and safety in humans. To perform the screen, hNPCs seeded in 384-well plates were treated with each compound from the library or vehicle control (DMSO) for 1 hour, followed by addition of ZIKV MR766 at a MOI=0.125. After two hour of inoculation with ZIKV, the virus-containing medium was replaced by fresh virus-free medium and compounds were replenished for each well (See Methods). After an additional three days of culture, cells were fixed and stained with antibodies against the ZIKV envelop protein (ZIKV E) and a cell proliferation marker Ki67 (FIG. 1A). The percentages of ZIKV E^+ cells, Ki67^+ cells and total cell number were quantified by an automated imaging and analysis system. A two dimensional analysis was performed to choose the primary hit compounds (FIG. 5A). The X-axis represents the fold change of total cell number, which was calculated by dividing the total cell number of the chemical-treated well by the average total cell number of DMSO-treated wells. The Y-axis represents the fold change of the percentage of ZIKV infected cells, which was calculated by dividing the percentage of cells expressing ZIKV E in each chemical-treated well by the average of the percentage of cells expressing ZIKV E from DMSO-treated wells. […] Based on the fold change of the percentage of ZIKV infection, the signal-to-basal (S/B) ratio is 4.2 and the coefficient of variation (CV) is 6.9%. The Z factor is 0.59 indicating a robust screening system.
hNPCs were plated on 96-well plates at 8.5×10^4/cm^2. After overnight incubation, hNPCs were infected with ZIKV (MR766 strain, MOI=0.125) for 2 h, and changed to virus-free medium. The cells were maintained in NPC medium with daily medium change. Three days later, the supernatant and cells were collected and used for assays. hESC-derived forebrain organoids were infected with ZIKV MR766 (5×10^5 PFU/ml) for 24 h. After removal of virus containing medium, forebrain organoids were maintained in forebrain organoid medium for an additional 3 or 17 days and then used for assays.
High-content Screen. hNPCs were dissociated and plated on Matrigel-coated 384-well plates for the chemical screen. […] DMSO was used as a negative control. ZIKV MR766 was added at MOI=0.125. After 2 hour infection, the supernatant was replaced with fresh medium and compounds from the same chemical library were added to the same wells. After an additional 3 days incubation, cells were fixed, stained with antibodies against ZIKV envelop protein (ZIKV E) and proliferation marker Ki67, and analyzed with the ImageXpress^MICRO Automated High-Content Analysis System. […] X-axis represents the fold change of total cell number, which was calculated by dividing the total cell number of the chemical treated well by the average of total cell number of DMSO treated wells. Y-axis represents the fold change of the percentage of ZIKV infection, which was calculated by dividing the percentage of ZIKV infection of the chemical treated well by the average of the percentage of ZIKV infection of DMSO treated wells. The compounds in which the fold change of total cell number >1 and the fold change of the percentage of ZIKV infection <20% were further evaluated. […]

[2] = test system: hNPCs; assay: hNPC viability, proliferation, apoptosis and identity; format: cell-based, human; conditions: 20 μM Merbromin, 72 h after ZIKV infection
Protocol: (A) Scheme of high content chemical screen. (B) Chemical structure of hit compounds. (C) Inhibitory curve and IC50 of HH or AQ on hNPCs (n=6). (D-H) Immunocytochemistry analysis (D), the quantification of the infection rate (E), the quantification of proliferation rate (F), the quantification of cell apoptosis rate (G) and the normalized cell viability (H) of hNPCs at 72 h after ZIKV (MR 766 strain) infection with or without drug treatment. Scale bars, 100 μm. The ZIKV infection rate is defined as the percentage of ZIKV E^+ cells. The proliferation rate is defined as the percentages of Ki67^+ cells. The cell apoptosis rate was defined as the percentage of cleaved-Caspase 3/CAS3^+ cells. The normalized cell viability was calculated by dividing the total cell number of each condition by the total cell number under mock infection conditions. (n=6). (I) qRT-PCR analysis to monitor the total ZIKV vRNA in the supernatant of hNPC cultures at 72 h after ZIKV infection with or without drug treatment. (J) Vero cell reinfection assay to monitor the ZIKV infectious particles in the supernatant of hNPC cultures with or without drug treatment. To perform the Vero cell reinfection assay, hNPCs at 72 h after ZIKV infection were washed three times and changed to drug free medium for an additional 24 h. Vero cells were infected with the supernatant collected from hNPCs for 2 h and changed to virus free medium for an additional 24 h. Vero cells were stained with antibody against ZIKV E and DAPI. Scale bars, 200 μm. (n=3). (K) Quantification of ZIKV infectious particles produced by ZIKV-infected hNPCs with or without compound treatment by the Vero cell reinfection assay. (L) Heatmap analysis of mock-infected hNPCs treated with DMSO (mock); mock infected hNPCs treated with 25 μM HH (HH), mock-infected hNPCs treated with 15 μM AQ (AQ), ZIKV (MR766 strain, MOI=0.125) infected hNPCs treated with DMSO (ZIKV+DMSO); ZIKV-infected hNPCs treated with 25 μM HH (ZIKV+HH), and ZIKV-infected hNPCs treated with 15 μM AQ (ZIKV+AQ). […] (M and N) Immunocytochemistry analysis (M) and quantification of the infection rate (N) of hNPCs at 72 h after ZIKV (PRVABC59 strain) infection with or without drug treatment (n=6). Scale bars, 100 μm. p values were calculated by one-way repeated measures ANOVA with a Bonferroni test for multiple comparisons. *p<0.05, **p<0.01 and ***p<0.001.
(A) Scheme to evaluate the elimination of ZIKV. At day 0, hNPCs were infected with ZIKV for 2 h. After removal of ZIKV infection medium, hNPCs were treated with drug candidates. At day 3, the culture medium was changed to fresh medium without compounds. The cells were maintained in drug-free culture until day 6 and used for immunohistochemistry and qRT-PCR. (B and C) Inhibitory curve and IC50 of HH calculated based on the infection rate (B) and normalized cell viability (C) (n=6). (D and E) Immunocytochemistry analysis (D) and the quantification of infection rate, cell apoptosis rate, and total cell number (E) of hNPCs on day 3 and day 6. Cells was fixed and stained with cleaved Caspase-3 (CAS3), ZIKV E and DAPI. Scale bars, 100 μm. (F) qRT-PCR analysis to monitor the total ZIKV vRNA in the supernatant of hNPC cultures on day 6. Scale bars, 200 μm. (n=3). (G) Vero cell reinfection assay to monitor the infective ZIKV vRNA in the supernatant of hNPC cultures at day 6 after ZIKV infection. Scale bars, 200 μm. (n=3). (H) Quantification of ZIKV infectious particles produced by ZIKV-infected hNPCs at day 6 by the Vero cell reinfection assay. (I) hNPCs with or without ZIKV infection treated with HH maintain hNPC marker expression and differentiation capacity. hNPCs with or without ZIKV MR766 infection were treated with 25 μM HH or DMSO for 3 days and then stained for SOX2, NESTIN and with DAPI. hNPCs with or without ZIKV infection and treated with HH or DMSO for 3 days were differentiated to cortical neurons. The cortical neurons were then fixed and stained for MAP2, TUJ1 and with DAPI. Scale bars, 100 μm. (n=3). […]

## O=C([O-])c1ccccc1-c1c2cc(Br)c(=O)cc-2oc2[c]([Hg+])c([O-])c(Br)cc12.[Na+].[Na+].[OH-] [Merbromin]
[1]
  ZIKV infection of hNPCs: did not affect ZIKV infection
[2]
  hNPC proliferation in ZIKV infected hNPCs: significantly increased
  total cell loss in ZIKV infected hNPCs: rescued the total cell loss
